{
  "source": "ChEMBL document CHEMBL3507680",
  "about": "“University of Dundee, Gates Library screen for HepG2 cell viability”",
  "assay": "Human HepG2 cell viability assay in 384 well format",
  "format": "toxicity, cell-based",
  "parameters": "dose 125 nL, time 70.5 hour; cytotoxicity at 70.5 h: concentration not given beside the values",
  "conditions": "HepG2 cells, read-out: Inhibition",
  "data": [
    {"compound": "CCOc1ccc(NC(C)c2nnnn2-c2ccccc2)cc1CO", "note": "(stereo not given)", "values": [
      {"measurement": "cytotoxicity at 70.5 h", "value": -66.6, "unit": "%"}
    ]},
    {"compound": "COCC(O)CN(C)C(=O)NCc1ccc(-c2ccn[nH]2)cc1", "note": "(stereo not given)", "values": [
      {"measurement": "cytotoxicity at 70.5 h", "value": -85.9, "unit": "%"}
    ]},
    {"compound": "CS(=O)(=O)CCN(CCCO)C1CCc2ccccc21", "note": "(stereo not given)", "values": [
      {"measurement": "cytotoxicity at 70.5 h", "value": -98.4, "unit": "%"}
    ]},
    {"compound": "CCS(=O)(=O)NCCN(CCO)C1CCc2ccccc21", "note": "(stereo not given)", "values": [
      {"measurement": "cytotoxicity at 70.5 h", "value": -58.4, "unit": "%"}
    ]},
    {"compound": "O=C1CN(C(=O)CNC(CC(F)(F)F)c2ccc(F)cc2)CCN1", "note": "(stereo not given)", "values": [
      {"measurement": "cytotoxicity at 70.5 h", "value": -55.7, "unit": "%"}
    ]},
    {"compound": "COCCC(=O)Nc1ccnn1-c1ccccc1", "values": [
      {"measurement": "cytotoxicity at 70.5 h", "value": 1.36, "unit": "%"}
    ]},
    {"compound": "CC(=O)NCCc1ccc(S(=O)(=O)Nc2ccc(C)c(F)c2)s1", "values": [
      {"measurement": "cytotoxicity at 70.5 h", "value": -5.64, "unit": "%"}
    ]},
    {"compound": "CC(C)c1ncc(Cl)c(C(=O)N2CCN(C3CCCC3)CC2)n1", "values": [
      {"measurement": "cytotoxicity at 70.5 h", "value": -3.22, "unit": "%"}
    ]},
    {"compound": "CC1(c2ccc(Br)cc2)CC(=O)N(CCC#N)C1=O", "note": "(stereo not given)", "values": [
      {"measurement": "cytotoxicity at 70.5 h", "value": 32.5, "unit": "%"}
    ]},
    {"compound": "O=C(Nc1ccccc1N1CCOC1=O)N1CCc2sccc2C1", "values": [
      {"measurement": "cytotoxicity at 70.5 h", "value": -8.21, "unit": "%"}
    ]},
    {"compound": "OCCN1CCN(CC(O)c2ccc(C(F)(F)F)cc2)CC1", "note": "(stereo not given)", "values": [
      {"measurement": "cytotoxicity at 70.5 h", "value": 33.3, "unit": "%"}
    ]},
    {"compound": "COc1cc(CSc2nnc(N)n2C2CC2)ccc1SC", "values": [
      {"measurement": "cytotoxicity at 70.5 h", "value": -5.1, "unit": "%"}
    ]},
    {"compound": "CC1(c2ccc(Br)cc2)CC(=O)N(CC(N)=O)C1=O", "note": "(stereo not given)", "values": [
      {"measurement": "cytotoxicity at 70.5 h", "value": 32.3, "unit": "%"}
    ]},
    {"compound": "CCC(NC(=O)CNC(=O)OC)c1cc(F)ccc1F", "note": "(stereo not given)", "values": [
      {"measurement": "cytotoxicity at 70.5 h", "value": -2.42, "unit": "%"}
    ]},
    {"compound": "COCCNC(=O)Cn1cc(NC(=O)c2cccc(Cl)c2Cl)cn1", "values": [
      {"measurement": "cytotoxicity at 70.5 h", "value": -1.6, "unit": "%"}
    ]},
    {"compound": "COCC(=O)Nc1ccnn1-c1ccc(Cl)cc1", "values": [
      {"measurement": "cytotoxicity at 70.5 h", "value": 3.64, "unit": "%"}
    ]},
    {"compound": "Cc1cc(C)cc(CNc2ccc(C(=O)NC(C)CO)cc2)c1", "note": "(stereo not given)", "values": [
      {"measurement": "cytotoxicity at 70.5 h", "value": -1.12, "unit": "%"}
    ]},
    {"compound": "CSCc1cc(C(=O)NC2(C#N)CC2)ccc1F", "values": [
      {"measurement": "cytotoxicity at 70.5 h", "value": -0.691, "unit": "%"}
    ]},
    {"compound": "CCc1nc(C(=O)N2CC(C(C)C)Nc3ccccc32)c[nH]1", "note": "(stereo not given)", "values": [
      {"measurement": "cytotoxicity at 70.5 h", "value": -7.98, "unit": "%"}
    ]},
    {"compound": "CCc1nc(C(=O)N2CC(C)CN(C)c3ccccc32)c[nH]1", "note": "(stereo not given)", "values": [
      {"measurement": "cytotoxicity at 70.5 h", "value": -2.27, "unit": "%"}
    ]},
    {"compound": "Cc1nc(CNC(=O)Nc2cc(F)ccc2OC(F)F)no1", "values": [
      {"measurement": "cytotoxicity at 70.5 h", "value": -3.38, "unit": "%"}
    ]},
    {"compound": "CC1CN(C)c2ccccc2N(C(=O)c2c[nH]c(C(C)C)n2)C1", "note": "(stereo not given)", "values": [
      {"measurement": "cytotoxicity at 70.5 h", "value": 31.3, "unit": "%"}
    ]},
    {"compound": "Cc1ncccc1C(=O)Nc1cccc(OCC(F)F)n1", "values": [
      {"measurement": "cytotoxicity at 70.5 h", "value": -8.26, "unit": "%"}
    ]},
    {"compound": "CC(=O)N1CCC[C@H]1C(=O)NCCCN(C(C)C)S(C)(=O)=O", "values": [
      {"measurement": "cytotoxicity at 70.5 h", "value": -6.32, "unit": "%"}
    ]},
    {"compound": "CC(C)N(CCCNC(=O)C1CC(=O)N(C)C1)S(C)(=O)=O", "note": "(stereo not given)", "values": [
      {"measurement": "cytotoxicity at 70.5 h", "value": 33.7, "unit": "%"}
    ]},
    {"compound": "CN(Cc1nnn(CC2CC2)n1)C(=O)c1ccccc1", "values": [
      {"measurement": "cytotoxicity at 70.5 h", "value": 32.1, "unit": "%"}
    ]},
    {"compound": "FC(F)(F)COc1ccc(CSCc2ccon2)cn1", "values": [
      {"measurement": "cytotoxicity at 70.5 h", "value": -8.78, "unit": "%"}
    ]},
    {"compound": "CCN(C(=O)Nc1nccs1)C(C)c1cccc(O)c1", "note": "(stereo not given)", "values": [
      {"measurement": "cytotoxicity at 70.5 h", "value": -9.8, "unit": "%"}
    ]},
    {"compound": "Cn1cc(CNCCNc2ncc(Cl)cc2Cl)cn1", "values": [
      {"measurement": "cytotoxicity at 70.5 h", "value": -4.79, "unit": "%"}
    ]},
    {"compound": "COc1c(C)cnc(CN2CCCC2c2noc(C3CC3)n2)c1C", "note": "(stereo not given)", "values": [
      {"measurement": "cytotoxicity at 70.5 h", "value": 1.14, "unit": "%"}
    ]},
    {"compound": "COC(=O)c1ccc(Cn2cnc(C#N)n2)cc1", "values": [
      {"measurement": "cytotoxicity at 70.5 h", "value": -12, "unit": "%"}
    ]},
    {"compound": "NCc1cccc(NC(=O)CCN2CCOCC2)c1", "values": [
      {"measurement": "cytotoxicity at 70.5 h", "value": -9.57, "unit": "%"}
    ]},
    {"compound": "CSCCC(NC(=O)c1ccco1)C(=O)N(C)Cc1ccsc1", "note": "(stereo not given)", "values": [
      {"measurement": "cytotoxicity at 70.5 h", "value": -4.71, "unit": "%"}
    ]},
    {"compound": "COc1ccc(CCN(C)C(=O)c2cc(C(C)=O)c[nH]2)cc1OC", "values": [
      {"measurement": "cytotoxicity at 70.5 h", "value": -11.9, "unit": "%"}
    ]},
    {"compound": "O=C(CCN1CCOCC1)Nc1cccc(CNCc2ccsc2)c1", "values": [
      {"measurement": "cytotoxicity at 70.5 h", "value": 14.1, "unit": "%"}
    ]},
    {"compound": "Cc1n[nH]c(C)c1NC(=O)NCc1cc[nH]n1", "values": [
      {"measurement": "cytotoxicity at 70.5 h", "value": -12.5, "unit": "%"}
    ]},
    {"compound": "COc1ccc(CCCN(C)C(=O)c2cc(Cl)c[nH]2)cc1OC", "values": [
      {"measurement": "cytotoxicity at 70.5 h", "value": -10.5, "unit": "%"}
    ]},
    {"compound": "CS(=O)(=O)NCC1CCCN(Cc2ccccc2F)C1", "note": "(stereo not given)", "values": [
      {"measurement": "cytotoxicity at 70.5 h", "value": -7.12, "unit": "%"}
    ]},
    {"compound": "O=C(NCc1ccco1)N1CCOC(c2ccccc2Cl)C1", "note": "(stereo not given)", "values": [
      {"measurement": "cytotoxicity at 70.5 h", "value": -15.6, "unit": "%"}
    ]},
    {"compound": "O=C(NCCc1ccccn1)N1CCOC(c2ccccc2Cl)C1", "note": "(stereo not given)", "values": [
      {"measurement": "cytotoxicity at 70.5 h", "value": -5.38, "unit": "%"}
    ]},
    {"compound": "CSc1ccc(C)c(C(=O)Nc2c(C(N)=O)n[nH]c2C)c1", "values": [
      {"measurement": "cytotoxicity at 70.5 h", "value": -5.86, "unit": "%"}
    ]},
    {"compound": "COc1cc(F)cc2sc(NC(=O)COCC3CCCO3)nc12", "note": "(stereo not given)", "values": [
      {"measurement": "cytotoxicity at 70.5 h", "value": 13.2, "unit": "%"}
    ]},
    {"compound": "N#Cc1cccnc1NCCNC(=O)N1CCCSCC1", "values": [
      {"measurement": "cytotoxicity at 70.5 h", "value": -13, "unit": "%"}
    ]},
    {"compound": "CCc1ccc(S(=O)(=O)Nc2cn(C)cc(Br)c2=O)cc1", "values": [
      {"measurement": "cytotoxicity at 70.5 h", "value": 7.59, "unit": "%"}
    ]},
    {"compound": "CN(C)C(=O)N1CCN(Cc2nnc(C(C)(C)C)o2)CC1", "values": [
      {"measurement": "cytotoxicity at 70.5 h", "value": -4.6, "unit": "%"}
    ]},
    {"compound": "CCc1nc(CN(C)CC2CCN(CC(C)O)CC2)no1", "note": "(stereo not given)", "values": [
      {"measurement": "cytotoxicity at 70.5 h", "value": -4.55, "unit": "%"}
    ]},
    {"compound": "Cc1nnc(C(C)NCC2(c3ccc(Cl)cc3)CCCC2)o1", "note": "(stereo not given)", "values": [
      {"measurement": "cytotoxicity at 70.5 h", "value": -7.22, "unit": "%"}
    ]},
    {"compound": "COc1ccc(C2(CNC(C)c3nnc(C)o3)CCCCC2)cc1", "note": "(stereo not given)", "values": [
      {"measurement": "cytotoxicity at 70.5 h", "value": -8.26, "unit": "%"}
    ]},
    {"compound": "Cc1ccc(CN(C)C(=O)CN2CCCC2Cn2cccn2)o1", "note": "(stereo not given)", "values": [
      {"measurement": "cytotoxicity at 70.5 h", "value": -9.22, "unit": "%"}
    ]},
    {"compound": "Cc1cnn(CC2CCCN2CC(=O)N(C)CCC#N)c1", "note": "(stereo not given)", "values": [
      {"measurement": "cytotoxicity at 70.5 h", "value": -7.49, "unit": "%"}
    ]},
    {"compound": "CN(CC1CCCCO1)C(=O)c1ccnc(OC2CCC2)c1", "note": "(stereo not given)", "values": [
      {"measurement": "cytotoxicity at 70.5 h", "value": -5.26, "unit": "%"}
    ]},
    {"compound": "CCc1nnc2n1CCN(Cc1csc(-c3cnn(C)c3)n1)C2", "values": [
      {"measurement": "cytotoxicity at 70.5 h", "value": 6.48, "unit": "%"}
    ]},
    {"compound": "Cc1cc(NC(=O)CCc2ccsc2)n(C)n1", "values": [
      {"measurement": "cytotoxicity at 70.5 h", "value": -9.51, "unit": "%"}
    ]},
    {"compound": "O=S1(=O)CCCN1Cc1coc(-c2cccs2)n1", "values": [
      {"measurement": "cytotoxicity at 70.5 h", "value": -10.6, "unit": "%"}
    ]},
    {"compound": "CC(C)(C)NC(=O)CNC(=O)CCc1ccccc1Br", "values": [
      {"measurement": "cytotoxicity at 70.5 h", "value": -8.13, "unit": "%"}
    ]},
    {"compound": "CCCNC(=O)C(C)NC(=O)CCc1ccccc1Br", "note": "(stereo not given)", "values": [
      {"measurement": "cytotoxicity at 70.5 h", "value": -6.3, "unit": "%"}
    ]},
    {"compound": "CC1CCN(CCNC(=O)C2CCN(S(N)(=O)=O)CC2)CC1", "values": [
      {"measurement": "cytotoxicity at 70.5 h", "value": -3.07, "unit": "%"}
    ]},
    {"compound": "CN(C)CCN(Cc1ccc(Cl)cc1)C(=O)c1cc[nH]n1", "values": [
      {"measurement": "cytotoxicity at 70.5 h", "value": -3.35, "unit": "%"}
    ]},
    {"compound": "NC(=O)CN1CCC(NC(=O)c2ccn(-c3cccc(F)c3)n2)CC1", "values": [
      {"measurement": "cytotoxicity at 70.5 h", "value": -3.27, "unit": "%"}
    ]},
    {"compound": "Brc1cc2c(cc1CN1CCC(N3CCCCC3)CC1)OCCO2", "values": [
      {"measurement": "cytotoxicity at 70.5 h", "value": -2.82, "unit": "%"}
    ]}
  ]
}
